For test [1], the target named is T1, Heparanase (Homo sapiens) (UniProt Q9Y251).
T1 sequence (whole entry): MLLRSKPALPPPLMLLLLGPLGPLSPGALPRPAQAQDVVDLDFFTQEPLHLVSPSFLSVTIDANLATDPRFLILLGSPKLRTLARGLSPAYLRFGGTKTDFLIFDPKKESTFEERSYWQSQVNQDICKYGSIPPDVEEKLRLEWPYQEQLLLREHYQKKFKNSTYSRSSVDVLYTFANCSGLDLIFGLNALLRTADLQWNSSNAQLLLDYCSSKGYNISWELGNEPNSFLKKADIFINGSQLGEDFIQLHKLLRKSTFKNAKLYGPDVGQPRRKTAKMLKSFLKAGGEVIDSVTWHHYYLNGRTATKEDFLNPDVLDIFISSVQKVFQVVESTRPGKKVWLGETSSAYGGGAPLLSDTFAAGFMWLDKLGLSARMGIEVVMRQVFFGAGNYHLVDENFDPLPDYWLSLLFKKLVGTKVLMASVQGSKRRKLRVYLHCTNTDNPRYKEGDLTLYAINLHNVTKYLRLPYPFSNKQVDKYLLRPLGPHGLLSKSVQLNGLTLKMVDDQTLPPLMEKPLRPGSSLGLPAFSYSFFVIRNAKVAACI
The test can be described thus: Inhibition of HPSE in human HT1080 cells assessed as reduction in FGF2 mRNA expression after 24 hrs by qPCR analysis relative to control. In kind it is cell-based. (In general: Quantitative PCR measures a nucleic acid by following its amplification.)

For test [2], the target named is T1, Heparanase (Homo sapiens). In words: Inhibition of HPSE in human HT1080 cells assessed as reduction in FGF1 mRNA expression after 24 hrs by qPCR analysis relative to control. Format: cell-based.
For test [3], the system named is U-87 MG. The test can be described thus: Anti-invasive activity in human U87MG cells assessed as reduction in invasive potential at 1 uM after 24 hrs by matrigel invasion assay relative to control. Format: functional, U-87MG ATCC.
Test [4] concerns U-87 MG. The test can be described thus: Antiproliferative activity against human U87MG cells after 72 hrs by SRB assay. In kind it is cell-based, U-87MG ATCC. Particulars: Homo sapiens, U-87 MG, 72 h; read-out: IC50. A general note: Sulforhodamine B stains cellular protein and so reports cell mass.
Test [5] deals with HT-1080. The test can be described thus: Antiproliferative activity against human HT1080 cells after 72 hrs by SRB assay. Format: cell-based. The conditions noted are these: Homo sapiens, HT-1080, 72 h; read-out: IC50.
Test [6] relates to U2OS. In words: Antiproliferative activity against human U2OS cells after 72 hrs by SRB assay. In kind it is cell-based. The conditions noted are these: Homo sapiens, U2OS, 72 h; read-out: IC50.
The target in test [7] is T1, Heparanase (Homo sapiens). The test can be described thus: Inhibition of HPSE in human HT1080 cells assessed as reduction in MMP9 mRNA expression after 24 hrs by qPCR analysis relative to control. Format: cell-based.
Test [8] concerns the target T1, Heparanase (Homo sapiens). In words: Inhibition of HPSE in human HT1080 cells assessed as reduction in HPSE mRNA expression after 24 hrs by qPCR analysis relative to control. Format: cell-based.
Test [9] deals with T1, Heparanase (Homo sapiens). The test can be described thus: Inhibition of HPSE in human HT1080 cells assessed as reduction in VEGF mRNA expression after 24 hrs by qPCR analysis relative to control. Format: cell-based.
Test [10] deals with U2OS. In words: Anti-invasive activity in human U2OS cells assessed as reduction in invasive potential at 1 uM after 24 hrs by matrigel invasion assay relative to control. Format: functional.
Test [11] relates to HT-1080. In words: Anti-invasive activity in human HT1080 cells assessed as reduction in invasive potential at 1 uM after 24 hrs by matrigel invasion assay relative to control. In kind it is functional. The conditions noted are these: HT-1080, 24 h.

Activity calls are given as the source filed them. The rule behind the calls is not given here.

From ChEMBL document CHEMBL4261644, “Novel Symmetrical Benzazolyl Derivatives Endowed with Potent Anti-Heparanase Activity” (J Med Chem, 2018) come the findings set out here.

The inhibition is the percentage by which the read-out fell short of the control. The term IC50 denotes the concentration that gives 50% inhibition. Regarding `COc1ccc(C(=O)Nc2ccc(CNc3ccc(-c4nc5cc(CC(=O)O)ccc5[nH]4)cc3F)cc2)cc1Br`, the inhibition entry in test [1], in test [2], in test [7], in test [8] and in test [9] was “Active” each time. Further, the inhibition at 1 µM with U-87 MG [3], in the test on U2OS [10] and in the test on HT-1080 [11] was 50 to 90% throughout. Moreover, the IC50 is 2.8 µM with U-87 MG [4], 8.7 µM with HT-1080 [5] and 1.7 µM with U2OS [6].
